The record followed here is patent publication US9708397B2, “Treatment of vasculoproliferative conditions with Lrg1 antagonists” (UCL Business PLC, priority 2010, dated 2017).

The subject of this test is Lrg1/TGFβ1 induced Smad5 phosphorylation. Description: TGFβ-induced Smad5 phosphorylation in Lrg1 over-expressing GPNT endothelial cells. It is filed as cell-based, rat. Particulars: 5 ng/ml TGFβ, co-treatment. The text has this: We next established whether we could block endothelial Smad5 phosphorylation induced by TGFβ with either an anti-Lrg1 antibody or by peptide sequences derived from Lrg1. Peptides derived from the leucine-rich repeat regions of the Lrg1 sequence (L1-24 and L169-192 of Appendix 2 (SEQ ID NOS:3-4) or L94-117 and L262-285 of Appendix 3 (SEQ ID NOS:3-4)), which are believed to be involved in protein-protein interactions, and from the highly conserved leucine-rich C-terminal domain (L227-252 of Appendix 2 (SEQ ID NO:5) or L320-345 of Appendix 3 (SEQ ID NO:5)) were generated (Appendix 2). […] Treatment of control cells with 5 ng/ml TGFβ results in a significant increase in Smad5 phosphorylation.

“LQELHLSSNGLESLSPEFLRPVPQ (listed as Homo sapiens) [L1-24, Peptide from a leucine-rich repeat region of human Lrg1]”: the “effect on Smad5 phosphorylation” value is recorded as “no effect”.

Take “KMFSQNDTRCAGPEAVKGQTLLAVAK (listed as Homo sapiens) [L227-252]”: the “effect on Smad5 phosphorylation” value is recorded as “dramatic inhibitory effect”. Moreover, under “listed as Lrg1 blocking peptide derived from the C-terminus”, the “effect on Smad5 phosphorylation” value is “inhibits”.

Take “LDMLDLSNNSLASVPEGLWASLGQ (listed as Homo sapiens) [L169-192, Peptide from a leucine-rich repeat region of human Lrg1]”: the “effect on Smad5 phosphorylation” value is recorded as “partial effect”.
